# T1: ELG3/V5-His (Homo sapiens, UniProt Q9NXB9)
# T1 construct: made in house; host or cells: Saccharomyces cerevisiae (INVSc1), microsomal fraction
# T1 sequence (Q9NXB9 1-296): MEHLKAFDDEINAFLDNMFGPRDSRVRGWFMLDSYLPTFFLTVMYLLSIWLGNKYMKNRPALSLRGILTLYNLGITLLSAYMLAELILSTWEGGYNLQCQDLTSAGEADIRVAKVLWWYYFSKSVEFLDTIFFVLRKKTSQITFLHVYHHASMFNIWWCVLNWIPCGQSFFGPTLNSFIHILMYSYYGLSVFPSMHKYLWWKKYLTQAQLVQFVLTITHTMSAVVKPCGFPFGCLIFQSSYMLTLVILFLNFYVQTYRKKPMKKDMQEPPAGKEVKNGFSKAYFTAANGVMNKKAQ
# B1: ELG7: human PUFA elongase (SEQ ID NO: 12) expressed in yeast from plasmid pTh1044.1 (protein)
# chain: MGLLDSEPGSVLNVVSTALNDTVEFYRWTWSIADKRVENWPLMQSPWPTLSISTLYLLFVWLGPKWMKDREPFQMRLVLIIYNFGMVLLNLFIFRELFMGSYNAGYSYICQSVDYSNNVHEVRIAAALWWYFVSKGVEYLDTVFFILRKKNNQVSFLHVYHHCTMFTLWWIGIKWVAGGQAFFGAQLNSFIHVIMYSYYGLTAFGPWIQKYLWWKRYLTMLQLIQFHVTIGHTALSLYTDCPFPKWMHWALIAYAISFIFLFLNFYIRTYKEPKKPKAGKTAMNGISANGVSKSEKQLMIENGKKQKNGKAKGD
# modifications: human
# B2: ELG4: human PUFA elongase (SEQ ID NO: 5) expressed in yeast from plasmid pTh1021.1 (protein)
# chain: MAFSDLTSRTVHLYDNWIKDADPRVEDWLLMSSPLPQTILLGFYVYFVTSLGPKLMENRKPFELKKAMITYNFFIVLFSVYMCYEFVMSGWGIGYSFRCDIVDYSRSPTALRMARTCWLYYFSKFIELLDTIFFVLRKKNSQVTFLHVFHHTIMPWTWWFGVKFAAGGLGTFHALLNTAVHVVMYSYYGLSALGPAYQKYLWWKKYLTSLQLVQFVIVAIHISQFFFMEDCKYQFPVFACIIMSYSFMFLLLFLHFWYRAYTKGQRLPKTVKNGTCKNKDN
# modifications: human
# B3: ELG6: human PUFA elongase (SEQ ID NO: 9) expressed in yeast from plasmid pTh1041.1 (protein)
# chain: MVTAMNVSHEVNQLFQPYNFELSKDMRPFFEEYWATSFPIALIYLVLIAVGQNYMKERKGFNLQGPLILWSFCLAIFSILGAVRMWGIMGTVLLTGGLKQTVCFINFIDNSTVKFWSWVFLLSKVIELGDTAFIILRKRPLIFIHWYHHSTVLVYTSFGYKNKVPAGGWFVTMNFGVHAIMYTYYTLKAANVKPPKMLPMLITSLQILQMFVGAIVSILTYIWRQDQGCHTTMEHLFWSFILYMTYFILFAHFFCQTYIRPKVKAKTKSQ
# modifications: human
# Assays:
# ELG3/V5-His = molecular target: T1, ELG3/V5-His; test: Elongation of [1-14C]20:5n-3 in microsomes of yeast expressing ELG3/V5-His; type: biochemical; details: for % conversion 24:5n-3 / % conversion 22:5n-3 / % conversion Total: substrate [1-14C]20:5n-3 7.2 μM; for % conversion 24:5n-3: control 5.0; for % conversion 22:5n-3: control 13.7; for % conversion Total: control 18.7
# Method: A sulphoxide derivative of S-propylbutylethylthiocarbamate (pebulate sulphoxide) was obtained from Zeneca Agrochemicals, UK, and dissolved in ethanol at a concentration of 5 mM.
# A 51 culture of Saccharomyces cerevisiae transformed with pTh1017.1 encoding ELG3/V5-His was started with a cell density of approximately 3.2×10^5 cells/ml (O.D.600 0.4) using SC-U medium with 1% raffinose. After 8 h of incubation at 30° C. in an orbital shaker at 270 rpm, galactose was added to a final concentration of 2%. Yeast were incubated for an additional 12 h until they were harvested by centrifugation at 2060×g for 10 minutes at 4° C. and washed with water. The cell pellet was resuspended in ⅓ of its volume in a pH 7.2 isolation buffer (80 mM Hepes-KOH, 10 mM KCl, 320 mM sucrose, 2 mM PMSF and a protease inhibitor cocktail). The cell suspension was poured into a mortar containing liquid N2 and ground with sand using a ceramic pestle. The yeast powder was transferred to a conical test tube, to which ⅔ of the pellet volume of isolation buffer was added. The sand was removed by centrifugation at 228×g for 1 min and the suspension centrifuged at 10,000×g for 20 min to separate cell debris, nuclei and mitochondria. The supernatant was centrifuged at 106,000×g for 1.5 h to obtain the microsomal pellet, which was resuspended in storage buffer (80 mM Hepes-KOH, 10 mM KCl, 320 mM sucrose, 1 mM PMSF and a protease inhibitor cocktail) to a final protein concentration of 20 μg/μl. The protein concentration was measured by the method of Lowry et al. (1951, .J Biol. Chem., 193: 265-275) with bovine serum albumin as standard.
# The activity of ELG3/V5-His was determined by measuring the conversion of [1-^14C]20:5n-3 to [1-^14C]22:5n-3 and [1-^14C]24:5n-3. Reactions were started by adding 500 μg of yeast microsomal protein to pre-incubated tubes containing 0.20 μCi of the substrate fatty acid at a final concentration of 7.2 μM in 0.25 ml of 80 mM Hepes-KOH (pH 7.2) with 43 mM MgCl2, 1.0 mM ATP,500 μM NADPH, 10 μM coenzyme A, 100 μM […] (as lithium salt) and pebulate sulphoxide at concentrations that ranged between 1 to 100 μM. The tubes were vortexed vigorously and after 30 min incubation at 37° C. in a shaking water bath, the reactions were stopped by the addition of 2 ml of 10% (w/v) KOH in ethanol. Lipids in the incubation mixture were saponified at 80° C. for 45 min under N2. The samples were then left in ice for 5 min before acidification with 750 μl of concentrated HCl. […] The fatty acid methyl esters were analyzed by HPLC as described in Example 19.
# The enzyme activity was expressed in percent conversion of radiolabelled 20:5n-3 into its elongation products. Alternatively, it can be expressed in pmol of the fatty acids produced/mg microsomal protein/min.
# rat liver elongase = test: Elongation of [1-14C]20:5n-3 in rat liver microsomes; type: biochemical; details: for % conversion 24:6n-3: delta-6-desaturation product of 24:5n-3, control 9.1; for % conversion 22:5n-3 / % conversion 24:5n-3 / % conversion Total: substrate [1-14C]20:5n-3; for % conversion 22:5n-3: control 11.6; for % conversion 24:5n-3: control 39.7; for % conversion Total: control 60.4
# Method: Wistar rats under light halothane (15% in mineral oil) anesthesia were sacrificed by exsanguination during periods of high enzyme activity. Livers were immediately rinsed with cold 0.9% NaCl solution, weighed and minced with scissors. All procedures were performed at 4° C. unless specified-otherwise. Livers were homogenized in a solution (1:3 w/v) containing 0.25 M sucrose, 62 mM potassium phosphate buffer (pH 7.0), 0.15 M KCl, 1.5 mM N-acetylcysteine, 5 mM MgCl2, and 0.1 mM EDTA using 4 strokes of a Potter-Elvehjem tissue homogenizer. The homogenate was centrifuged at 10,400×g for 20 min to pellet mitochondria and cellular debris. The supernatant was filtered through a 3-layer cheesecloth and centrifuged at 105,000×g for 60 min. The microsomal pellet was gently resuspended in the same homogenization solution with a small glass/teflon homogenizer and stored at −80° C. The absence of mitochondrial contamination was enzymatically assessed as described elsewhere (Kilberg, M. S. and Christensen H. N., 1979, Biochemistry, 18: 1525-1530). The protein concentration was measured by the method of Lowry et al (1951, J. Biol. Chem., 193: 265-275) with bovine serum albumin as standard.
# Reactions were performed using 500 μg of rat liver microsomal protein with the same concentrations of pebulate sulphoxide, radiolabelled fatty acid, conditions and procedures described in Example 21.
# The enzyme activity was expressed in percent conversion of radiolabelled 20:5n-3 into its elongation and final delta-6-desaturation products (i.e., 22:5n-3, 24:5n-3 and 24:6n-3).
# 18:3n-3 = test: Elongation of [1-14C]18:3n-3 in yeast expressing human elongases (RP-HPLC); details: for Percent Elongation of 18:3n-3 to 20:3: product 20:3n-3
# Description: (§1) For the expression of ELG1, ELG2, ELG3, ELG4, ELG5, ELG6 or ELG7 the yeast were transformed with pTh1009.1, pTh1014.1, pTh1015.1, pTh1021.1, pTh1018.1, pTh1041.1 or pTh1044.1, respectively. For the expression of ELG1/V5-His, ELG2/V5-His, ELG3/V5-His, ELG4/V5-His, ELG5/V5-His, ELG6/V5 -His or ELG7/V5-His the yeast were transformed with pTh1009.2, pTh1014.2, pTh1017.1, pTh1021.2, pTh1019.1, pTh1042.1 or pTh1045.1, respectively. Recombinant yeast cells were selected on SC-U medium.
# (§2) Transformed yeast (approximately 3.2×10^6 cells/ml; O.D.600 0.4) were incubated in a 125 ml Erlenmeyer containing 10 ml of SC-U medium with 1% raffinose, 1% tergitol and 25 μM of the lithium salts of either [1-^14C]18:3n-3 (1 μCi), [1-^14C]18:3n-6 (1 μCi), [1-^14C]20:4n-6 (2 μCi), or [1-^14C]20:5n-3 (2 μCi). After 4 h incubation in an orbital incubator at 270 rpm and 30° C., cells reached the log phase and the transgene, expression was induced with galactose 30° C., cells reached the log phase and the transgene expression was induced with galactose (2% final concentration). The yeast were incubated for an additional 19 h and then harvested by centrifugation at 5000×g for 10 minutes at 4° C.
# (§3) Cells were washed with Tris-HCl buffer (100 mM, pH 8.0) containing 0.1% BSA and total lipids were extracted as described below. The radioactivity from aliquots of the incubation medium, supernatant and cells was determined by liquid scintillation counting using a LS6500-Scintillation System (Beckman).
# (§4) Alternatively, cells were resuspended in 1.5 ml of water and saponified with 2 ml of 10% KOH in ethanol. The total lipid extracts or the free fatty acids from the saponified samples were methylated using boron trifluoride in methanol at 90° C. for 30 min. The resultant methyl esters (FAME) were analyzed as described below.
# (§5) Analyses of radiolabelled FAME were carried out on a Hewlett Packard 1090, series II chromatograph equipped with a diode array detector set at 205 nm, a radioisotope detector (model 171, Beckman, CA) with a solid scintillation cartridge (97% efficiency for ^14C-detection) and a reverse phase ODS (C-18) Beckman column (250 mm×4.6 mm i.d.; 5 μm particle size) attached to a pre-column with a μBondapak C-18 (Beckman) insert. FAME were separated isocratically with acetonitrile/water (95.5 v/v) at a flow rate of 1 ml/min and were identified by comparison with authentic standards. Alternatively, the eluted FAME were collected and the solvent evaporated. FAME were re-dissolved in hexane for further analysis by gas chromatography.
# 18:3n-6 = test: Elongation of [1-14C]18:3n-6 in yeast expressing human elongases (RP-HPLC); details: untagged elongase, 25 μM substrate; for Percent Elongation of 18:3n-6 to 20:3: product 20:3n-6
# Description: as §1, §2, §3, §4, §5
# 20:5n-3 = test: Elongation of [1-14C]20:5n-3 in yeast expressing human elongases (RP-HPLC); details: untagged elongase, 25 μM substrate
# Description: as §1, §2, §3
# Alternatively, cells were resuspended in 1.5 ml of water and saponified with 2 ml of 10% KOH in ethanol. The total lipid extracts or the free fatty acids from the saponified samples were methylated using boron trifluoride in methanol at 90° C. for 30 min. The resultant methyl esters (FAME) were analyzed as described below. […]
# 20:4n-6 = test: Elongation of [1-14C]20:4n-6 in yeast expressing human elongases (RP-HPLC); details: for Percent Elongation of 20:4n-6 to 22:4: product 22:4n-6
# Description: as §1, §2, §3, §4, §5
# [1] = untagged elongase, 25 μM substrate
molecule,measurement,setting,value
"CCCCN(CC)C(=O)[S+]([O-])CCC (centres unmarked) [Pebulate sulphoxide, sulphoxide derivative of S-propylbutylethylthiocarbamate]",% conversion 24:5n-3,ELG3/V5-His; 1 μM,5.6%
same,% conversion 22:5n-3,ELG3/V5-His; 1 μM,13.8%
same,% conversion Total,ELG3/V5-His; 1 μM,19.4%
same,% conversion 24:5n-3,ELG3/V5-His; 10 μM,6.6%
same,% conversion 22:5n-3,ELG3/V5-His; 10 μM,12.8%
same,% conversion Total,ELG3/V5-His; 10 μM,19.4%
same,% conversion 24:5n-3,ELG3/V5-His; 50 μM,4.6%
same,% conversion 22:5n-3,ELG3/V5-His; 50 μM,11.3%
same,% conversion Total,ELG3/V5-His; 50 μM,15.9%
same,reduction of elongation (ELG3/V5-His activity),"ELG3/V5-His; 100 μM, 20:5n-3 as substrate",approximately 27%
same,% conversion 24:5n-3,ELG3/V5-His; 100 μM,4.3%
same,% conversion 22:5n-3,ELG3/V5-His; 100 μM,9.4%
same,% conversion Total,ELG3/V5-His; 100 μM,13.7%
same,% conversion 24:6n-3,rat liver elongase; 1 μM,9.6%
same,% conversion 22:5n-3,rat liver elongase; 1 μM,12.5%
same,% conversion 24:5n-3,rat liver elongase; 1 μM,47.5%
same,% conversion Total,rat liver elongase; 1 μM,69.3%
same,% conversion 24:6n-3,rat liver elongase; 10 μM,10.9%
same,% conversion 22:5n-3,rat liver elongase; 10 μM,12.5%
same,% conversion 24:5n-3,rat liver elongase; 10 μM,47.2%
same,% conversion Total,rat liver elongase; 10 μM,70.7%
same,% conversion 24:6n-3,rat liver elongase; 50 μM,7.9%
same,% conversion 22:5n-3,rat liver elongase; 50 μM,12.2%
same,% conversion 24:5n-3,rat liver elongase; 50 μM,48.7%
same,% conversion Total,rat liver elongase; 50 μM,68.8%
same,reduction of elongation (rat liver elongase activity),"rat liver elongase; 100 μM, 20:5n-3 as substrate",approximately 30%
same,% conversion 24:6n-3,rat liver elongase; 100 μM,4.5%
same,% conversion 22:5n-3,rat liver elongase; 100 μM,10.2%
same,% conversion 24:5n-3,rat liver elongase; 100 μM,28.0%
same,% conversion Total,rat liver elongase; 100 μM,42.7%
B1,Percent Elongation of 18:3n-3 to 20:3,18:3n-3; V5-His tagged elongase,4%
same,Percent Elongation of 18:3n-3 to 20:3,18:3n-3; [1],5%
B2,Percent Elongation of 18:3n-6 to 20:3,18:3n-6,20%
same,Percent Elongation of 18:3n-6 to 22:3,18:3n-6; product 22:3n-6,4%
same,Percent Elongation of 20:5n-3 to 22:5,20:5n-3; product 22:5n-3,15%
same,Percent Elongation of 20:5n-3 to 24:5,20:5n-3; product 24:5n-3,3%
same,Percent Elongation of 18:3n-3 to 20:3,18:3n-3; [1],10%
same,Percent Elongation of 18:3n-3 to 22:3,"18:3n-3; untagged elongase, 25 μM substrate, product 22:3n-3",4%
same,Percent Elongation of 20:4n-6 to 22:4,20:4n-6; V5-His tagged elongase,12%
same,Percent Elongation of 20:4n-6 to 22:4,20:4n-6; [1],24%
same,Percent Elongation of 20:4n-6 to 24:4,"20:4n-6; untagged elongase, 25 μM substrate, product 24:4n-6",2%
B3,Percent Elongation of 18:3n-6 to 20:3,18:3n-6,2%
same,Percent Elongation of 18:3n-3 to 20:3,18:3n-3; V5-His tagged elongase,3%
same,Percent Elongation of 18:3n-3 to 20:3,18:3n-3; [1],3%

# From patent US7297523B2, “Human elongase genes and uses thereof” (Xenon Pharmaceuticals Inc., priority 2000, dated 2007)
